{"source": "paper PMC8964335", "about": "(Drug Design, Development and Therapy, 2022)", "key": {"[1]": {"conditions": "no reference given; cited from earlier work"}, "SR-aGVHD patients": {"system": "SR-aGVHD patients", "conditions": "10 mg ruxolitinib twice daily, cited from earlier work"}, "patients undergoing HSCT": {"system": "patients undergoing HSCT", "conditions": "initial dose 5 mg twice daily; cited from earlier work"}, "[2]": {"system": "patients with hematological malignancies", "test": "Adverse effects during the DDI study", "assay_type": "in vivo, human"}, "healthy people": {"system": "healthy people", "conditions": "cited from earlier work"}, "[3]": {"conditions": "human; cited from earlier work"}, "[4]": {"conditions": "presence vs absence of food; cited from earlier work"}, "[5]": {"test": "Ruxolitinib pharmacokinetics without and with co-administered voriconazole", "assay_type": "in vivo, human"}, "[6]": {"conditions": "coadministered with fluconazole vs ruxolitinib alone; cited from earlier work"}, "CYP2C9": {"system": "CYP2C9", "conditions": "cited from earlier work"}, "[7]": {"conditions": "10 mg once daily for 10 days; cited from earlier work"}, "[8]": {"system": "patients receiving ruxolitinib", "conditions": "patients receiving ruxolitinib vs control regimen; cited from earlier work"}, "CYP3A4": {"system": "CYP3A4", "conditions": "cited from earlier work"}, "[9]": {"test": "Voriconazole steady-state check from two adjacent trough concentrations", "assay_type": "in vivo, human", "conditions": "first four patients, day 4, 200 mg per 12 h without loading dose"}, "[10]": {"system": "breast cancer resistance protein (BCRP)", "conditions": "cited from earlier work"}, "[11]": {"conditions": "after pre-treatment with voriconazole vs ruxolitinib alone"}, "[12]": {"conditions": "ruxolitinib 5 mg co-administered with voriconazole"}, "[13]": {"conditions": "with voriconazole vs ruxolitinib alone"}}, "note": "“Also recorded” adds a separate entry of the source. Where two headings read alike, the source gives them in different places.", "data": [{"compound": "CC[C@@H]([C@H](C)O)n1ncn(-c2ccc(N3CCN(c4ccc(OC[C@@H]5CO[C@@](Cn6cncn6)(c6ccc(F)cc6F)C5)cc4)CC3)cc2)c1=O", "note": "[posaconazole]", "values": [{"measurement": "bioavailability", "setting": "[1]", "result": 83, "unit": "%"}]}, {"compound": "N#CC[C@H](C1CCCC1)n1cc(-c2ncnc3[nH]ccc23)cn1", "note": "[ruxolitinib]", "values": [{"measurement": "overall response on day 28", "setting": "SR-aGVHD patients; SR-aGVHD", "result": 62, "unit": "%"}, {"measurement": "anemia, severe (grade ≥ 3) adverse event", "setting": "SR-aGVHD patients", "result": 22, "unit": "%"}, {"measurement": "neutropenia, severe (grade ≥ 3) adverse event", "setting": "SR-aGVHD patients", "result": 13, "unit": "%"}, {"measurement": "thrombocytopenia, severe (grade ≥ 3) adverse event", "setting": "SR-aGVHD patients", "result": 27, "unit": "%"}, {"measurement": "patients developing severe cytopenia", "setting": "patients undergoing HSCT", "result": 60, "unit": "%"}, {"measurement": "patients responding", "setting": "patients undergoing HSCT", "result": 75, "unit": "%"}, {"measurement": "adverse effects", "setting": "[2]; two single doses of 5 mg ruxolitinib", "result": "No observed adverse effects; also recorded: No adverse effect"}, {"measurement": "maximum tolerated dose (MTD)", "setting": "healthy people; once daily", "result": 100, "unit": "mg"}, {"measurement": "maximum tolerated dose (MTD)", "setting": "healthy people; twice daily", "result": 25, "unit": "mg"}, {"measurement": "unchanged parent molecules in urine and feces", "setting": "[3]", "result": "less than 1%"}, {"measurement": "AUCinf decreased by food", "setting": "[4]", "result": 6, "unit": "%"}, {"measurement": "Cmax decreased by food", "setting": "[4]", "result": 24.3, "unit": "%"}, {"measurement": "AUCinf increased by", "setting": "[5]; [11]", "result": 118.3, "unit": "%"}, {"measurement": "AUClast increased by", "setting": "[5]; [11]", "result": 110.1, "unit": "%"}, {"measurement": "Cmax increased by", "setting": "[5]; [11]", "result": 50.4, "unit": "%"}, {"measurement": "T1/2 increased by", "setting": "[5]; [11]", "result": 81.3, "unit": "%"}, {"measurement": "change in Tmax", "setting": "[5]; [11]", "result": "no significant change"}, {"measurement": "CL/F % of ruxolitinib alone", "setting": "[5]; [12]", "result": 43.6, "unit": "%"}, {"measurement": "Cmax % of ruxolitinib alone", "setting": "[5]; [12]", "result": 150.4, "unit": "%"}, {"measurement": "CL/F", "setting": "[5]; ruxolitinib 5 mg single oral dose alone, 12 patients, mean ± SD", "result": "22.5 ± 6.4", "unit": "L/h"}, {"measurement": "AUClast increased to", "setting": "[5]; [13]", "result": "approximately 2.1 fold"}, {"measurement": "T1/2 prolonged to", "setting": "[5]; [13]", "result": 1.81, "unit": "fold"}, {"measurement": "AUCinf increased to (range over patients)", "setting": "[5]; with voriconazole vs ruxolitinib alone, range", "result": "1.44–3.35 fold"}, {"measurement": "AUCinf increased by", "setting": "[6]", "result": 232, "unit": "%"}, {"measurement": "AUClast increased by", "setting": "[6]", "result": 234, "unit": "%"}, {"measurement": "Cmax increased by", "setting": "[6]", "result": 47, "unit": "%"}, {"measurement": "share of metabolism by CYP2C9", "setting": "CYP2C9", "result": 19, "unit": "%"}, {"measurement": "accumulation on repeated dosing", "setting": "[7]", "result": "no cumulative effect"}, {"measurement": "fungal infection", "setting": "[8]", "result": 11.5, "unit": "%"}, {"measurement": "share of metabolism by CYP3A4", "setting": "CYP3A4", "result": 76, "unit": "%"}]}, {"compound": "C[C@@H](c1ncncc1F)[C@](O)(Cn1cncn1)c1ccc(F)cc1F", "note": "[voriconazole]", "values": [{"measurement": "adverse effects", "setting": "[2]; voriconazole 200 mg per 12 h without loading dose, first four patients", "result": "no adverse effects were observed"}, {"measurement": "bioavailability", "setting": "[1]", "result": 96, "unit": "%"}, {"measurement": "difference between two trough concentrations (C12-C0)/C12×100%", "setting": "[9]", "result": "less than 15%"}, {"measurement": "inhibition of BCRP", "setting": "[10]", "result": "does not inhibit"}]}]}
